# Reference: PMC5142825 (Bioorganic & medicinal chemistry letters, 2016)
# Where two headings read alike, the source gives them in different places.
# Experiments:
# Porcn [1] = molecular target: T1, Porcn (Mus musculus, UniProt Q9JJJ7); experiment: Suppression of Wnt signaling in L-Wnt-STF cells; format: cell-based
# T1 sequence (Q9JJJ7 1-461): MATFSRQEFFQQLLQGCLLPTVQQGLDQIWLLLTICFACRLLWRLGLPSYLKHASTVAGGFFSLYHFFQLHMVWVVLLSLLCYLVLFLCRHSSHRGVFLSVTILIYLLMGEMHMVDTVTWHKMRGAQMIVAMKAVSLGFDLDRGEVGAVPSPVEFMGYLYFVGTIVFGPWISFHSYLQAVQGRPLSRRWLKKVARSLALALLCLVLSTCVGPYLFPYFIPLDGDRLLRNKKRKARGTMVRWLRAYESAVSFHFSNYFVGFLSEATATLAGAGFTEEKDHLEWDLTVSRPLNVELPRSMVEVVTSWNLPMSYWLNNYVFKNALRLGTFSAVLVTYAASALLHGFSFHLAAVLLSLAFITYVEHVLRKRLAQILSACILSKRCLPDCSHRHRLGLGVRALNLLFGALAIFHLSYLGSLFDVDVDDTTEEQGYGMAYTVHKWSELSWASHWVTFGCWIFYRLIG
# [2] = Metabolic stability in murine liver S9 fractions; format: in vitro ADME; settings: for stability (in words): compared with 6
# [3] = Stability in murine plasma; format: in vitro ADME; settings: compared with 6
# [4] = system: Dvl2/3 phosphorylation in HeLa cells; experiment: Western blot of Dvl2/3 phosphorylation in HeLa cells; format: cell-based; settings: 24 h incubation
# [5] = system: LRP6 phosphorylation in HeLa cells; experiment: Western blot of LRP6 phosphorylation in HeLa cells; format: cell-based; settings: 24 h incubation
# Porcn [6] = molecular target: T1, Porcn; settings: L-Wnt-STF cells; cited from earlier work
# [7] = murine liver S9 fractions; cited from earlier work
# [8] = murine plasma; cited from earlier work
# [9] = human plasma; cited from earlier work
smiles,measurement,setting,value
O=C(CSc1nnc(-c2ccncc2)n1-c1ccccc1)Nc1ccc(-c2cccnc2)cc1 [IWP-L2],EC50,Porcn [1],0.3 nM
same,stability (in words),[2],low stability
same,stability (in words),[3],low stability
O=C(Cn1cc(-c2ccncc2)nn1)Nc1ccc(-c2ccccc2)cn1 [IWP-N3],stability (in words),[2],much more stable
same,stability (in words),[3],much more stable
O=C(Cn1nnc(-c2ccncc2)c1-c1ccccc1)Nc1ccc(-c2ccccc2)cn1 [IWP-O1],times more potent than LGK974,Porcn [1]; L-Wnt-STF cells,2.5 times
same,phosphorylation of Dvl2/3,[4],effectively suppressed
same,phosphorylation of LRP6,[5],suppressed
same,degradation after incubation,[2]; 4 h,did not observe any degradation
same,stability (in words),[2],much more stable
same,stability (in words),[3],much more stable
"Cc1cc(-c2ncc(CC(=O)Nc3ccc(-c4cnccn4)cn3)cc2C)ccn1 [LGK974, reference compound]",EC50,Porcn [1],0.2 nM
O=C(CSc1nc2c(c(=O)n1-c1ccccc1)SCC2)Nc1ccc(-c2ccccc2)cn1 [IWP-L6],fold more potent than 1 (IWP-2),Porcn [6],60 fold
same,Half-life,[7],26 min
same,Half-life,[8],<5 min
same,stability (in words),[9],good stability
O=C(CSc1nnc(-c2ccncc2)o1)Nc1ccc(-c2cccnc2)cc1 [IWP-L1],activity against Wnt signaling,Porcn [1]; at low micromolar concentrations,inactive
"Cc1ccc2nc(NC(=O)CSc3nc4c(c(=O)n3-c3ccccc3)SCC4)sc2c1 [IWP-2, reference compound]",fold decrease of potency relative to 17,Porcn [1]; L-Wnt-STF cells,5 fold
